From the supplement of paper PMC10307832

How the values were obtained:
Test in all cases: relative viability (nuclei count vs DMSO), 5 days (fraction); higher = more cells survive
OSI-027 + Olaparib = compound: COc1cccc2cc(-c3nc([C@H]4CC[C@H](C(=O)O)CC4)n4ncnc(N)c34)[nH]c12 [OSI-027] + O=C(c1cc(Cc2n[nH]c(=O)c3ccccc23)ccc1F)N1CCN(C(=O)C2CC2)CC1 [Olaparib] (partner 8 µM)
In short: (§1)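 After 5 days of treatment, lung cancer cells in 1536-well plates were fixed and stained in a single step (final 0.05% Triton X-100, 1% formaldehyde, 1 ug/ml Hoechst) and their nuclei counted on 4× images. Treatment had been applied by pin tool the day after seeding as one drug alone or as a fixed anchor-drug dose with five library-drug doses (not always all listed) in √10 steps. Relative viability is the nuclei count of treated wells divided by that of vehicle wells, and values are medians of duplicate plates.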

Vemurafenib + Phenformin = compound: CCCS(=O)(=O)Nc1ccc(F)c(C(=O)c2c[nH]c3ncc(-c4ccc(Cl)cc4)cc23)c1F [Vemurafenib] + N=C(N)NC(=N)NCCc1ccccc1 [Phenformin] (partner 250 µM)
In short: as §1

OSI-027 + Crizotinib = compound: COc1cccc2cc(-c3nc([C@H]4CC[C@H](C(=O)O)CC4)n4ncnc(N)c34)[nH]c12 [OSI-027] + C[C@@H](Oc1cc(-c2cnn(C3CCNCC3)c2)cnc1N)c1c(Cl)ccc(F)c1Cl [Crizotinib] (partner 1 µM)
In short: as §1

Vemurafenib + AZD7762 = compound: CCCS(=O)(=O)Nc1ccc(F)c(C(=O)c2c[nH]c3ncc(-c4ccc(Cl)cc4)cc23)c1F [Vemurafenib] + NC(=O)Nc1cc(-c2cccc(F)c2)sc1C(=O)N[C@H]1CCCNC1 [AZD7762] (partner 0.2 µM)
In short: as §1

Cell Line | relative viability (OSI-027 + Olaparib; first compound 0.01 µM) | relative viability (OSI-027 + Olaparib; first compound 0.03162 µM) | relative viability (OSI-027 + Olaparib; first compound 0.1 µM) | relative viability (OSI-027 + Olaparib; first compound 0.3162 µM) | relative viability (OSI-027 + Olaparib; first compound 1 µM) | relative viability (Vemurafenib + Phenformin; first compound 0.03162 µM) | relative viability (Vemurafenib + Phenformin; first compound 0.3162 µM) | relative viability (Vemurafenib + Phenformin; first compound 1 µM) | relative viability (OSI-027 + Crizotinib; first compound 0.01 µM) | relative viability (OSI-027 + Crizotinib; first compound 0.03162 µM) | relative viability (OSI-027 + Crizotinib; first compound 0.1 µM) | relative viability (OSI-027 + Crizotinib; first compound 0.3162 µM) | relative viability (OSI-027 + Crizotinib; first compound 1 µM) | relative viability (Vemurafenib + AZD7762; first compound 0.03162 µM) | relative viability (Vemurafenib + AZD7762; first compound 0.3162 µM) | relative viability (Vemurafenib + AZD7762; first compound 1 µM) | relative viability (Vemurafenib + Phenformin; first compound 0.1 µM) | relative viability (Vemurafenib + AZD7762; first compound 0.1 µM)
HCC-827 | 0.669 | 0.58 | 0.648 | 0.599 | 0.326 | 0.377 | 0.425 | 0.404 | 0.924 | 0.969 | 0.915 | 1.01 | 0.649 | 0.234 | 0.198 | 0.265 |  | 
HOP-62 | 0.605 | 0.68 | 0.456 | 0.594 | 0.167 | 0.628 | 0.585 | 0.595 | 1.02 | 0.922 | 0.999 | 1.36 | 0.428 | 0.551 | 0.395 | 0.668 | 0.651 | 0.558
IA-LM | 0.898 | 0.776 | 0.733 | 0.485 | 0.212 |  |  |  | 0.96 | 0.578 | 0.78 | 0.249 | 0.139 |  |  |  |  | 
LC-2-ad | 0.774 | 0.721 | 0.836 | 0.87 | 0.737 | 0.549 |  | 0.569 | 0.49 | 0.483 | 0.458 | 0.474 | 0.384 | 0.831 | 0.749 | 0.818 | 0.583 | 0.615
LCLC-97TM1 | 0.59 | 0.438 | 0.325 | 0.281 | 0.347 | 0.4 | 0.43 | 0.342 | 0.246 | 0.407 | 0.322 | 0.267 | 0.105 | 0.286 | 0.326 | 0.342 | 0.43 | 0.298
NCI-H520 | 0.286 | 0.313 | 0.293 | 0.216 | 0.208 | 0.564 | 0.435 | 0.496 | 0.813 | 0.848 | 0.876 | 0.424 | 0.286 |  |  |  | 0.702 | 
NCI-H522 | 0.544 | 0.668 | 0.524 | 0.679 | 0.449 | 0.651 | 0.547 | 0.622 |  |  |  |  |  | 0.797 | 0.755 | 0.869 | 0.536 | 0.855
NCI-H661 | 0.852 | 0.735 | 0.748 | 0.712 | 0.423 | 0.251 | 0.258 | 0.307 | 0.998 | 1.1 | 1.14 | 1.15 | 0.645 |  |  |  | 0.289 | 
NCI-H1299 | 1.02 | 0.998 | 0.956 | 1.04 | 0.796 |  |  |  | 0.994 | 0.984 | 0.937 | 1.04 | 0.937 |  |  |  |  | 
NCI-H1395 | 0.525 | 0.412 | 0.48 | 0.376 | 0.362 | 0.425 |  | 0.495 |  |  |  |  |  | 0.397 | 0.381 | 0.373 | 0.433 | 0.411
NCI-H1563 |  |  |  |  |  | 0.632 | 0.66 | 0.672 | 0.835 | 0.894 | 0.768 | 0.701 | 0.733 |  |  |  | 0.705 | 
NCI-H1623 |  |  |  |  |  | 0.565 | 0.623 | 0.569 |  |  |  |  |  |  |  |  |  | 
NCI-H1648 | 1.06 | 0.725 |  | 0.639 | 0.397 |  |  |  |  |  |  |  |  |  | 1.23 | 0.779 |  | 0.571
NCI-H1650 | 0.794 | 0.825 | 0.873 | 0.807 | 0.722 |  |  | 0.376 | 1.13 | 0.999 | 0.886 | 1.2 | 0.531 |  |  |  | 0.353 | 
NCI-H1703 | 0.424 | 0.552 | 0.316 | 0.304 | 0.19 |  |  |  | 0.753 | 0.591 | 0.595 | 0.672 | 0.374 | 0.12 |  | 0.101 |  | 
NCI-H1793 | 0.866 | 0.791 | 0.729 | 0.363 | 0.233 | 0.338 | 0.333 | 0.338 |  |  |  |  |  | 0.445 | 0.131 | 0.492 |  | 0.243
NCI-H2009 | 0.859 | 0.674 | 0.724 | 0.584 | 0.555 | 0.458 | 0.343 | 0.361 | 1.05 | 0.998 | 0.879 | 0.941 | 0.72 |  |  |  | 0.418 | 
NCI-H2023 | 0.455 | 0.446 | 0.455 | 0.303 | 0.253 | 0.376 | 0.378 | 0.354 | 0.679 | 0.587 | 0.614 | 0.501 | 0.295 |  |  |  | 0.381 | 
NCI-H2228 | 0.952 | 0.644 | 0.562 | 0.474 | 0.226 | 0.376 | 0.302 | 0.267 | 0.525 | 0.524 | 0.485 |  | 0.239 |  |  |  | 0.298 | 
NCI-H2342 | 0.522 | 0.385 | 0.439 | 0.338 | 0.314 | 0.443 | 0.622 | 0.737 |  |  |  |  |  | 0.462 | 0.47 | 0.518 | 0.574 | 0.499
SK-LU-1 | 0.399 | 0.43 | 0.396 | 0.359 | 0.265 | 0.428 | 0.384 | 0.521 | 0.937 | 0.789 | 0.644 | 0.531 | 0.358 |  |  |  | 0.555 | 
SK-MES-1 | 0.62 | 0.605 | 0.532 | 0.417 | 0.285 | 0.624 | 0.622 | 0.706 | 0.995 | 0.933 | 0.997 | 0.965 | 0.52 |  |  |  | 0.695 | 
SW 900 | 0.953 | 0.819 | 0.931 | 0.823 | 0.519 | 0.532 | 0.476 | 0.614 |  |  |  |  |  | 0.575 | 0.618 | 0.563 | 0.454 | 0.469
SW 1573 | 0.485 | 0.513 | 0.398 | 0.444 | 0.293 | 0.386 | 0.4 | 0.395 | 0.855 | 0.832 | 0.687 | 0.655 | 0.566 |  |  |  | 0.308 | 
